“And” between values parts separate entries of the source, which are not always exact repeats. Equal values may be shown once. “Also recorded” adds a separate entry of the source.
How the values were obtained:
MCF-7 cells = assay: Cell cycle profile by flow cytometry, MCF-7; format: cell-based, human; details: 48 hours, FIG. 37B
Experimental: MCF-7 cells were treated with P61-A6, P61-B6 or DMSO for 72 hours. Cell viability relative to the DMSO control (100% value) is plotted. (B) MCF-7 cells were treated with indicated concentrations (μM) of P61-A6, P61-B6 or DMSO for 48 hours. Cell cycle profiles were monitored by flow cytometry. Percentages of cells in each phase of the cell cycle are indicated by different shades. (C) NIH3T3 cells were transfected with p21^CIP1/WAF1-luciferase or empty vector. Cells were treated with P61-A6 or P61-B6 compound at indicated concentrations or with DMSO for 48 hours and luciferase assay was performed. Data represent the mean+/−S.D. of two measurements from two independent experiments. *, P<0.05; **, P<0.005 compared with the value for DMSO.
(§1) Cell viability was determined by Cell Counting Kit-8 (CCK-8, Dojindo, Kumamoto, Japan) as described previously (31). Cell viability was calculated relative to the DMSO control. Cell cycle profile was analyzed by flow cytometry as described previously (32).

Aspc-1 = Aspc-1 cell growth inhibition; format: cell-based, human; details: Homo sapiens, ASPC1, 144 h; 6 days, CCK-8, vs DMSO; read-out: IC50, AsPc-1 (Pancreas)
Experimental: (§2) In FIG. 9-24 in vitro IC50 values for the GGTase I activity are reported. In Tables 7-15 in cell GI50 values for the growth inhibition of a variety of cancer cell lines (e.g., Jurkat, K562, MDA-MB-231, BT474, MCF7, MiaPaCa2, Aspc-1, Panc-1, Capan-2, CFpac-1, and MCF10a) are reported.
as §1

MiaPaCa2 [1] = assay: Cell cycle distribution by flow cytometry, MiaPaCa2; format: cell-based, human; details: 10 μM, 48 hours
Experimental: as §1

Jurkat cells = assay: Jurkat cell growth inhibition; format: cell-based, human; details: Homo sapiens, Jurkat, 72 h; 3 days, CCK-8, vs DMSO; read-out: IC50, Jurkat (Blood)
Summary of the method: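 Jurkat T-cell leukemia cells were exposed to compound for 72 h, with cell number counted and viability read by CCK-8 relative to the DMSO control. GI50 is the compound concentration giving 50% growth inhibition.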

MCF7 = MCF7 cell growth inhibition; format: cell-based, human
Experimental: as §2, §1

MiaPaCa2 [2] = assay: MiaPaCa2 cell growth inhibition; format: cell-based, human; details: Homo sapiens, MIA PaCa-2, 72 h; 3 days, CCK-8, vs DMSO; read-out: IC50, MiaPaCa2 (Pancreas)
Experimental: as §2, §1

[3] = Pharmacokinetics (serum levels) after IP dosing; format: in vivo, mice; details: 1.16 mg/kg
Description: This may be due to slow metabolism of the compound. […] Thus, in some embodiments, the compositions of the invention can be administered is a dosage regimen that is highly convenient, e.g., once weekly instead of daily. The compositions of the present invention can be administered every 1, 2, 3, 4, 5, 6, or 7 days, or may be administered otherwise.

[4] = tested on: Rap1 geranylgeranylation in NIH3T3 cells; assay: Unprenylated Rap1 immunoblot in NIH3T3 cells; format: cell-based; details: 48 hours
Experimental: The inhibition of GGTase-I catalyzed protein geranylgeranylation was assessed by examining the accumulation of unprenylated Rap1. To measure the level of unprenylated Rap1, cells were cultured in DMEM plus 10% (v/v) FBS overnight, and then DMSO or appropriate inhibitors were added. Incubation was continued for 48 hours. The cells were harvested and lysed in lysis buffer (20 mM Tris-HCl, pH 7.5, 150 mM NaCl, 1 mM EDTA, 1% NP-40 and 1× Protease Inhibitor Cocktail). Whole cell lysates of NIH3T3 cells were electrophoresed on a 12% SDS-PAGE, transferred to nitrocellulose membranes and immunoblotted with the antibody against unprenylated form of Rap1 (Santa Cruz Biotechnology catalog number sc-1482, goat), total-Rap1 (Santa Cruz: sc-65) or actin (Sigma: A4700). Actin was used as a loading control.

With `Cc1ccccc1S(=O)(=O)N1C(c2ccc(Cl)cc2)C(C(=O)NC(Cc2ccccc2)C(N)=O)=CC1C(C)(C)C` (centres unmarked) [P61-A6] the “cell cycle effect in MCF-7” value (MCF-7 cells) was “dose-dependent enrichment of G1 phase cells”, the IC50 (Aspc-1) was 11.7 µM and the “Percent G2/M, MiaPaCa2” value (MiaPaCa2 [1]; DMSO 14.12) was 10.81%. For the same compound, the “Percent G0/G1, MiaPaCa2” value (MiaPaCa2 [1]; DMSO 77.85) was 87.98%, the IC50 (Jurkat cells) was 2.9 µM and the “inhibition of proliferation of MCF-7” value (MCF7; 72 hours, FIG. 37A) was “dose-dependent inhibition of proliferation”. The IC50 (MCF7; Homo sapiens, MCF7, 144 h, 6 days, CCK-8, vs DMSO, read-out: IC50, MCF-7 (Breast)) was 4.5 µM, the IC50 (MiaPaCa2 [2]) was 4.7 µM and the Clearance ([3]; IP) was 1.04 mL/h. The Cmax ([3]; mouse, serum, ip) was 13000 ng/mL and 22.4 µM, the half-life ([3]; mouse, serum, ip) was 16.9 h and the AUC(0-t) ([3]; mouse, serum, ip, read-out: AUC0-4 h) was 22200 ng·h/mL. For the same compound, the “appearance of the unprenylated (unprocessed) Rap1 band” value [4] was “in a dose dependent manner; also recorded: inhibits Rap1 geranylgeranylation” and the “appearance of the unprenylated Rap1 band at 2.5 μM” value ([4]; 2.5 μM) was “observed”.

From patent US8815935B2, “Inhibitors of protein prenyltransferases” (The Regents of the University of California, priority 2008, dated 2014)
